Results on twelve compounds are retold here after patent US10544150B2, “NK-3 receptor selective antagonist compounds, pharmaceutical composition and methods for use in NK-3 receptors mediated disorders” (Ogeda SA, priority 2010, dated 2020).

Each structure is given as a SMILES string. A value given as a limit tells only on which side of the number the result lay.

In this experiment the target is human NK-3 receptor (Homo sapiens (Human), UniProt P29371). Kind of experiment: 3H-SB222200 binding competition assay with human NK-3 receptor. As to conditions: 3H-SB222200 displacement, CHO cell membranes expressing human NK3 receptor; read-out: Ki range. In short, it runs like this:
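Membranes from CHO cells expressing human NK3 receptor incubated with 5 nM 3H-SB222200 and test compound in HEPES 25 mM/NaCl 0.1M/CaCl2 1 mM/MgCl2 5 mM/BSA 0.5%/saponin 10 μg/ml, pH 7.4. Bound radioligand counted after filtration; Ki calculated, reported in bands (+++ <500 nM to # >5 μM).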

Sequence of human NK-3 receptor (P29371 whole entry): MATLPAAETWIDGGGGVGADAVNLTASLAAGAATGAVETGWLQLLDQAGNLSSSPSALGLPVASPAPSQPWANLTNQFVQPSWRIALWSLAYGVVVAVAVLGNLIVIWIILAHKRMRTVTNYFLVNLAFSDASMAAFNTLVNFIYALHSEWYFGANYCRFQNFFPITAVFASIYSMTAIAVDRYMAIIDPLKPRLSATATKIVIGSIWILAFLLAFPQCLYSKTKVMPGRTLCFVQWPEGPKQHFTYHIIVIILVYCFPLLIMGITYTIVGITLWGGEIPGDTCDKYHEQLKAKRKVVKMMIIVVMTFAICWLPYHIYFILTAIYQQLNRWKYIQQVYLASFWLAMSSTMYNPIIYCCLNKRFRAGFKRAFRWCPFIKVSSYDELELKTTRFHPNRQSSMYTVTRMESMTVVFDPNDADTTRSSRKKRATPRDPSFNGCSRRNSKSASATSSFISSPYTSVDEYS

Consider `O=C(c1ccc(-c2cccs2)cc1)N1CCn2c(nnc2-c2nc(-c3ccc(F)cc3F)no2)C1` [Compound 185, (3-(3-(2,4-difluorophenyl)-1,2,4-oxadiazol-5-yl)-5,6-dihydro-[1,2,4]triazolo[4,3-a]pyrazin-7(8H)-yl)(4-(thiophen-2-yl)phenyl)methanone], for which the Ki (usually a dissociation constant, usually derived from enzyme kinetics or from competition with a known ligand) is greater than 5 µM.

Regarding `O=C(c1ccc(-c2cccs2)cc1)N1CCn2c(nnc2-c2csc(-c3ccc(N4CCCC4)cc3)n2)C1` [Compound 245, (3-(2-(4-(pyrrolidin-1-yl)phenyl)thiazol-4-yl)-5,6-dihydro-[1,2,4]triazolo[4,3-a]pyrazin-7(8H)-yl)(4-(thiophen-2-yl)phenyl)methanone], the inhibition constant (Ki) was less than 0.5 µM.

Turning to `O=C(c1ccc(-c2ccccc2)cc1)N1CCn2c(nnc2-c2csc(-c3ccccc3F)n2)C1` [Compound 182, [1,1′-biphenyl]-4-yl(3-(2-(2-fluorophenyl)thiazol-4-yl)-5,6-dihydro-[1,2,4]triazolo[4,3-a]pyrazin-7(8H)-yl)methanone], the inhibitory constant (Ki) was less than 0.5 µM.

For `C[C@@H]1c2nnc(-c3csc(-c4ccccc4)n3)n2CCN1C(=O)c1ccc(-c2cccs2)cc1` [Compound 135, (R)-(8-methyl-3-(2-phenylthiazol-4-yl)-5,6-dihydro-[1,2,4]triazolo[4,3-a]pyrazin-7(8H)-yl)(4-(thiophen-2-yl)phenyl)methanone], the inhibition constant (Ki) was less than 0.5 µM.

As for `O=C(c1ccc(F)cc1)N1CCn2c(nnc2-c2cccc(C(F)(F)F)n2)C1` [Compound 39, (4-fluorophenyl)(3-(6-(trifluoromethyl)pyridin-2-yl)-5,6-dihydro-[1,2,4]triazolo[4,3-a]pyrazin-7(8H)-yl)methanone], the Ki fell in the range of 0.5 to 1 µM.

For the compound `O=C(c1ccc(-c2cccs2)cc1)N1CCn2c(nnc2-c2cc(-c3ccccc3)nn2CCO)C1` [Compound 284, (3-(1-(2-hydroxyethyl)-3-phenyl-1H-pyrazol-5-yl)-5,6-dihydro-[1,2,4]triazolo[4,3-a]pyrazin-7(8H)-yl)(4-(thiophen-2-yl)phenyl)methanone], the Ki is less than 0.5 µM.

As for `O=C(c1ccc(-c2cccs2)cc1)N1CCn2c(nnc2-c2csc(-c3ccccc3OCCO)n2)C1` [Compound 281, (3-(2-(2-(2-hydroxyethoxy)phenyl)thiazol-4-yl)-5,6-dihydro-[1,2,4]triazolo[4,3-a]pyrazin-7(8H)-yl)(4-(thiophen-2-yl)phenyl)methanone], the Ki is less than 0.5 µM.

For `C[C@H]1c2nnc(-c3csc(-c4ccc(F)cc4)n3)n2CCN1C(=O)c1ccc(F)cc1` [Compound 164, (S)-(4-fluorophenyl)(3-(2-(4-fluorophenyl)thiazol-4-yl)-8-methyl-5,6-dihydro-[1,2,4]triazolo[4,3-a]pyrazin-7(8H)-yl)methanone], the inhibitory constant (Ki) was less than 0.5 µM.

With `O=C(c1ccc(F)cc1)N1CCn2c(nnc2-c2csc(-c3ccccc3F)n2)C1` [Compound 180, (4-fluorophenyl)(3-(2-(2-fluorophenyl)thiazol-4-yl)-5,6-dihydro-[1,2,4]triazolo[4,3-a]pyrazin-7(8H)-yl)methanone], the Ki was less than 0.5 µM.

In the case of `CC1c2nnc(-c3coc(-c4ccccc4)n3)n2CCN1C(=O)c1ccc(-c2ccccc2)cc1` (stereo not drawn) [Compound 49, [1,1′-biphenyl]-4-yl(8-methyl-3-(2-phenyloxazol-4-yl)-5,6-dihydro-[1,2,4]triazolo[4,3-a]pyrazin-7(8H)-yl)methanone], the Ki is less than 0.5 µM.

`O=C(c1ccc(F)cc1)N1CCn2c(nnc2-c2cccc(-c3ccccc3)n2)C1` [Compound 25, (4-fluorophenyl)(3-(6-phenylpyridin-2-yl)-5,6-dihydro-[1,2,4]triazolo[4,3-a]pyrazin-7(8H)-yl)methanone]: the Ki was less than 0.5 µM.

On to `CC1c2nnc(-c3csc(-c4ccccc4)n3)n2CCN1C(=O)c1ccc(-c2ccsc2)cc1` (stereo not drawn) [Compound 64, (8-methyl-3-(2-phenylthiazol-4-yl)-5,6-dihydro-[1,2,4]triazolo[4,3-a]pyrazin-7(8H)-yl)(4-(thiophen-3-yl)phenyl)methanone], for which the inhibition constant Ki is less than 0.5 µM.
